Results on three molecules are retold here after patent US10947196B2, “Beta adrenergic agonist and methods of using the same” (CURASEN THERAPEUTICS, INC., priority 2019, dated 2021).

Read-outs that look alike come from different tables or passages of the source. Some results are limits rather than exact numbers.

Usually EC50 stands for the midpoint of the concentration-response curve. In general, AUC(0-t) refers to exposure summed from dosing to a finite time, without extrapolation to infinity. Broadly, the AUC(0-inf) is total exposure, with the tail of the curve extrapolated. A word on the half-life: it is how long it takes for the measured level to halve. For orientation: Cmax means the maximum level reached in the sampled fluid or tissue. In general, Tmax refers to the time from dosing to the highest level.

One data set deals with β1-adrenergic receptor (Homo sapiens (Human), UniProt P08588). Nature of the data set: cAMP Gs dynamic HTRF assay, β1 expressing CHO cells. Format: cell-based. Summed up: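 Intracellular cAMP quantified by Eu-donor/d2-acceptor HTRF after 30 min compound exposure at 37° C in stimulation buffer with IBMX. Concentrations ran 10 μM top, 5-fold steps, 10 points. Cell lines: 1321N1 astrocytoma and CHO expressing β1 or β2; EC50 via four-parameter fit, relative efficacy against isoproterenol.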
In general terms: TR-FRET usually uses a lanthanide donor and a delayed reading to cut background.

Data set [1] is described as follows: Rat pharmacokinetic studies. Format: in vivo, male SD rats. On the set-up: AUClast/D: unit not given here. The following applies: for AUC(0-t) / AUC(0-inf) / C0 / half-life / MRT inf / Vd / Cmax / Tmax: male, SD; for MRT inf: read-out: MRTInf—obs; for Vd: read-out: Vss—obs. On the procedure:
The rat pharmacokinetics studies of exemplary compounds 03-3, 03-5, and 03-115 were conducted with male SD rats. These rats were typically about 6-8 weeks old, weighing 200 g to 300 g. Animals were fasted overnight and free access to food 4 hours after dosing. A required volume of vehicle was added to reach the target concentration of the test article and vehicle component to prepare for the dosing. The dosing vehicle was PEG400 or 30% PEG400 in saline for IV, or 0.5% methylcellulose in water for PO. For IV dosing, the animals were administered intravenously via tail vein. For PO dosing, the animals were administered via oral gavage. After dosing, blood sample was collected (˜0.2 mL per time point) through jugular vein or heart puncture. Blood of each sample was transferred into plastic micro centrifuge tubes containing EDTA-K2. Collection tubes with blood samples and anticoagulant were inverted several times for proper mixing of the tube contents and then placed on wet ice. The blood samples were centrifuged at 2000 g for 5 minutes at 4° C. to obtain plasma which was stored in a freezer at −75±15° C. prior to analysis. Samples were analyzed using LC-MS/MS. WinNonlin were used for pharmacokinetic calculations.

Where [2] appears, read: B1-AR, CHO-K cells, read-out: Average EC50 [Receptor subtype: B1-AR, Cell type: CHO-K].

Chain of β1-adrenergic receptor (P08588 whole entry, species assumed): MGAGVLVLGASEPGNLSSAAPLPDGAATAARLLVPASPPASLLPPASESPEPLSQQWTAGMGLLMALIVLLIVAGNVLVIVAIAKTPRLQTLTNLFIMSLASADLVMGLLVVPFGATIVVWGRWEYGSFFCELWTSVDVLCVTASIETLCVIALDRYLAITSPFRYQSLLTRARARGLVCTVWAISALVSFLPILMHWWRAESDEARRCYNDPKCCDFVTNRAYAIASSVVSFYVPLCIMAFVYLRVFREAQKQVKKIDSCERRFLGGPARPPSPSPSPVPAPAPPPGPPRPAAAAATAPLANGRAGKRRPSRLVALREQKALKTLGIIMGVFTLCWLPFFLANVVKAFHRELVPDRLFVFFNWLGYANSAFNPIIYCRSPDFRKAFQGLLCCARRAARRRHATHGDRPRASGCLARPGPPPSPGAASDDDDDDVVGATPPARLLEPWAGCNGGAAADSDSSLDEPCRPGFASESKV

With `CC(C)(C)NC[C@H](O)c1cccc(C(F)(F)F)n1` [Compound 03-3], the EC50 at β1-adrenergic receptor (β1 EC50 (nM), cAMP HTRF) lay within 10 to 100 nM. In data set [1] (IV 1 mg/kg), the AUClast/D was found to be 546, the “AUC—% Extrap—obs” value amounted to 1.14% and the Cl_obs came out at 30.2 mL/min/kg. Also, in data set [1] (PO 5 mg/kg), the AUClast/D is reported as 845, the “AUC—% Extrap—obs” value turned out to be 0.0970% and the F came to 153%. For the same molecule, in data set [1] (in vivo, IV 1 mg/kg), the AUC(0-t) worked out at 546 ng·h/mL. In data set [1] (plasma, IV 1 mg/kg), the AUC(0-inf) stood at 552 ng·h/mL, the C0 was 388 ng/mL, the half-life was 1.28 h and the MRT inf amounted to 1.61 h. Also, the Vd in data set [1] (plasma, IV 1 mg/kg) came to 2.92 L/kg. In data set [1] (plasma, PO 5 mg/kg), the AUC(0-inf) was 4230 ng·h/mL, the AUC(0-t) was 4220 ng·h/mL, the Cmax amounted to 818 ng/mL and the Tmax came to 1.17 h. In data set [1] (plasma, PO 5 mg/kg), the half-life was 2.44 h and the MRT inf was 3.93 h.

`CC(C)(C)NC[C@H](O)c1cccc(C#N)n1` [Compound 03-5, (S)-6-(2-(tert-butylamino)-1-hydroxyethyl)picolinonitrile]: on β1-adrenergic receptor (B1-AR), the “Average pEC50 [Receptor subtype: B1-AR; Cell type: CHO-K1 (HitHunter)]” value is “C (C = <7-6)”. Moreover, the EC50 on β1-adrenergic receptor (setting [2]) was in the range of 100 to 1000 nM. Besides, in data set [1] (IV 1 mg/kg), the AUClast/D is reported as 461, the “AUC—% Extrap—obs” value turned out to be 0.457% and the Cl_obs worked out at 37.3 mL/min/kg. For the same molecule, in data set [1] (PO 5 mg/kg), the AUClast/D was 450, the “AUC—% Extrap—obs” value is on record as 4.10% and the F is reported as 101%. In data set [1] (plasma, IV 1 mg/kg), this molecule gave an AUC(0-inf) of 463 ng·h/mL, an AUC(0-t) of 461 ng·h/mL, a C0 of 468 ng/mL and a half-life of 0.644 h. Also, in data set [1] (plasma, IV 1 mg/kg), the MRT inf worked out at 0.873 h and the Vd came to 1.89 L/kg. Further, in data set [1] (plasma, PO 5 mg/kg), the AUC(0-inf) is 2340 ng·h/mL, the AUC(0-t) was found to be 2250 ng·h/mL, the Cmax was 717 ng/mL and the Tmax is 0.75 h. Further, in data set [1] (plasma, PO 5 mg/kg), the half-life is 1.61 h and the MRT inf was 2.62 h.

Turning to `Cc1ncccc1[C@@H](O)CNC(C)(C)C` [Compound 03-115], the “Average pEC50 [Receptor subtype: B1-AR; Cell type: CHO-K1 (HitHunter)]” value on β1-adrenergic receptor (B1-AR) was “C-D”. On β1-adrenergic receptor (setting [2]), the 50% effective concentration (EC50) was more than 1000 nM. This molecule also returned a Cl_obs in data set [1] (IV 1 mg/kg) of 103 mL/min/kg. Moreover, the F in data set [1] (PO 5 mg/kg) was 23%. For the same molecule, in data set [1] (in vivo, IV 1 mg/kg), the AUC(0-inf) was found to be 164 ng·h/mL, the C0 is 512 ng/mL, the half-life was 0.36 h and the Vd is 2.4 L/kg. In data set [1] (in vivo, PO 5 mg/kg), the AUC(0-inf) amounted to 192 ng·h/mL, the Cmax amounted to 174 ng/mL, the Tmax is 0.25 h and the half-life was 1.61 h. For the same molecule, the MRT inf in data set [1] (in vivo, PO 5 mg/kg) was determined as 1.06 h.
